Patent publication US20260109699A1, “AZOLE DERIVATIVES AS SHP2 INHIBITORS” (IRBM S.P.A., priority 2022, published 2026)

How the values were obtained:
[1] = system: phospho-ERK1/2 (Thr202/Tyr204); experiment: Phospho-ERK cellular assay; assay type: cell-based; conditions: Homo sapiens; KYSE-520 cells, 2 h at 37° C, TR-FRET; read-out: pERK IC50
Protocol: ERK phosphorylation was detected using the “Advanced phospho-ERK1/2 (Thr202/Tyr204)” TR-FRET kit (Cisbio, Cat #64AERPEG/H), following the manufacturer reagents and instructions.
Briefly, 20.000/well KYSE-520 cells (DSMZ ACC 371) were plated in 6 μL RPMI-1640 (Invitrogen) growth medium, into 384 white low-volume high base TC microplates (Greiner). After an overnight incubation, cells were treated with DMSO serial diluted compounds and incubated for 2 h at 37° C. After incubation, 2 μL/well of 4×Lysis Buffer (Cisbio 64KL1FDF), were added and incubated with cells for 30 min on gentle shaking. Finally, lysates were added with 2 μL/well of Eu cryptate (donor) and D2 (acceptor) conjugated antibodies (as provided by the Cisbio kit #64AERPEG/H) diluted 1:100 in Detection Buffer (as provided by the Cisbio kit #64AERPEG/H). Plates were then sealed and incubated at rt in the dark. After an overnight incubation, the TR-FRET signal was detected on a suitable reader (Envision, PerkinElmer).
The lower the TR-FRET signal the higher the higher the SHP2 inhibition in cells.
The activity of each compound dilution was calculated as percentage between vehicle DMSO treated cells and no cells, 0% inhibition and 100% inhibition respectively. The percentage activity is fitted against the compound dilutions with a four-parameter logistic regression. The inflection point (i.e. the concentration at which half-maximal inhibition is achieved) is the IC50.
Legend: “+” indicates IC50 equal or higher than 0.5 μM; “++” indicates IC50 less than 0.5 μM and higher or equal to 0.1 μM; “+++” indicates IC50 less than 0.1 μM.

[2] = molecular target: T1, SHP-2 enzyme (Met1-Leu525), SHP2wt (Homo sapiens, UniProt Q06124); experiment: SHP2 inhibition enzymatic assay; assay type: biochemical; conditions: 0.5 nM SHP-2 activated by 500 nM IRS1 peptide, 75 μM DiFMUP substrate
T1 construct: synthetized by Origene, Met1-Leu525, cat #TP750155; purchased Origene TP750155
T1 sequence (Q06124 1-525): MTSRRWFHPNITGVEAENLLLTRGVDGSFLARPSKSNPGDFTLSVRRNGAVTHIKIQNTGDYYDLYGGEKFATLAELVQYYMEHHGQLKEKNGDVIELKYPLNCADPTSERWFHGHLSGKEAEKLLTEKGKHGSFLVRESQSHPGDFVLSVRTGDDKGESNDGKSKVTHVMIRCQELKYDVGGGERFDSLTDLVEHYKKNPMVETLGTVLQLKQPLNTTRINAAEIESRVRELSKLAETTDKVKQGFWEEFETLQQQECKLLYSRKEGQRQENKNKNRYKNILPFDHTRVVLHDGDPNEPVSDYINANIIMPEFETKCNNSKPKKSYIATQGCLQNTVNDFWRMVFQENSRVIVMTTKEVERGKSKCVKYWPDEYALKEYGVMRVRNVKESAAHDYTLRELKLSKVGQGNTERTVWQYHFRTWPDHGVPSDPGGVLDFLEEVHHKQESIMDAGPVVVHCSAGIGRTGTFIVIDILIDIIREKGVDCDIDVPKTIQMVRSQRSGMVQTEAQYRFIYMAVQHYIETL
Protocol: The assay was performed as described in YP Chen et al, Nature (535) 2016. Assay volume of 20 μL/well was assembled in 384 well black polystyrene low-binding microplates (Greiner), using the following buffer: 60 mM HEPES pH 7.2, 75 mM NaCl, 75 mM KCl, 1 mM EDTA pH 8, 0.05% tween-20, 5 mM DTT. The SHP-2 enzyme (synthetized by Origene, Met1-Leu525, cat #TP750155) was used at a final concentration of 0.5 nM. The enzyme was activated by 500 nM IRS1 peptide (sequence: H2N-LN(pY)IDLDLV(dPEG8)LST(pY)ASINFQK-amide; Wang et al., iScience 25,104009, Apr. 15, 2022, https://doi.org/10.1016/j.isci.2022.104009) and incubated with 75 μM DiFMUP (Sigma) as substrate.
Briefly, DMSO serially diluted testing compounds were transferred to the bottom of the assay plate. SHP2 was then added together with the IRS1 peptide 30 min post incubation, the DiFMUP substrate was added to the reaction and incubated 30 min at rt. Finally 5 μL of 160 μM bpV (potassium bisperoxo[1,10-phenanthroline]oxovanadate [V], Sigma) were added to stop and quench the reaction. The fluorescence was detected by a microplate reader (Envision, PerkinElmer) according to the DiFMUP excitation and emission wavelength. The lower the fluorescence the higher the SHP2 inhibition.
The activity of each compound dilution was calculated as percentage of inhibition between vehicle (DMSO, 0% inhibition) and no enzyme (100% inhibition). The percentage inhibition is fitted against the compound dilutions with a four-parameter logistic regression. The inflection point (i.e. the concentration at which half-maximal inhibition is achieved) is the IC50.
Legend: A indicates IC50 less or equal to 0.05 μM; B indicates IC50 greater than 0.05 μM and lower or equal to 0.3 μM.

| Structure (SMILES) | IC50 [1] | IC50 [2] |
| --- | --- | --- |
| Cc1nc(N2CCC3(CC2)Cn2nccc2[C@H]3N)cnc1Sc1ccnc(C)c1F [Example 4, (S)-1-(5-((3-fluoro-2-methylpyridin-4-yl)thio)-6-methylpyrazin-2-yl)-4′H,6′H-spiro[piperidine-4,5′-pyrrolo[1,2-b]pyrazol]-4′-amine] | 100 to 500 nM | ≤ 50 nM |
| N[C@@H]1c2ccnn2CC12CCN(c1cnc(Sc3ccc(Cl)c(Cl)c3)cn1)CC2 [Example 23, (S)-1-(5-((3,4-dichlorophenyl)thio)pyrazin-2-yl)-4′H,6′H-spiro[piperidine-4,5′-pyrrolo[1,2-b]pyrazol]-4′-amine] | 100 to 500 nM | ≤ 50 nM |
| Cc1nc(N2CCC3(CC2)Cn2ncc(F)c2[C@H]3N)cc(=O)n1-c1cccc(Cl)c1Cl (atropisomer, axis not shown) [Example 1, (S)-6-(4′-amino-3′-fluoro-4′H,6′H-spiro[piperidine-4,5′-pyrrolo[1,2-b]pyrazol]-1-yl)-3-(2,3-dichlorophenyl)-2-methylpyrimidin-4(3H)-one] | 100 to 500 nM | ≤ 50 nM |
| Cc1c(Cl)cccc1-c1ncc2c(N3CCC4(CC3)Cn3nccc3[C@H]4N)nccn12 [Example 15, (S)-1-(3-(3-chloro-2-methylphenyl)imidazo[1,5-a]pyrazin-8-yl)-4′H,6′H-spiro[piperidine-4,5′-pyrrolo[1,2-b]pyrazol]-4′-amine] | > 500 nM | ≤ 50 nM |
| Cn1c(N2CCC3(CC2)Cn2nccc2[C@H]3N)ncc(-c2cccc(F)c2F)c1=O [Example 5, (S)-2-(4′-amino-4′H,6′H-spiro[piperidine-4,5′-pyrrolo[1,2-b]pyrazol]-1-yl)-5-(2,3-difluorophenyl)-3-methylpyrimidin-4(3H)-one] | > 500 nM | 50 to 300 nM |
| N[C@@H]1c2ccnn2CC12CCN(c1cnc(Oc3ccc(Cl)cc3F)cn1)CC2 [Example 79, (S)-1-(5-(4-chloro-2-fluorophenoxy)pyrazin-2-yl)-4′H,6′H-spiro[piperidine-4,5′-pyrrolo[1,2-b]pyrazol]-4′-amine] | 100 to 500 nM | ≤ 50 nM |
| Cc1ccc(F)c(-c2ncc3c(N4CCC5(CC4)Cn4nccc4[C@H]5N)nccn23)c1Cl [Example 16, (S)-1-(3-(2-chloro-6-fluoro-3-methylphenyl)imidazo[1,5-a]pyrazin-8-yl)-4′H,6′H-spiro[piperidine-4,5′-pyrrolo[1,2-b]pyrazol]-4′-amine] | > 500 nM | 50 to 300 nM |
| N[C@@H]1c2ccnn2CC12CCN(c1cnc3nc(-c4cccc(F)c4F)ccc3n1)CC2 [Example 8, (S)-1-(6-(2,3-difluorophenyl)pyrido[2,3-b]pyrazin-2-yl)-4′H,6′H-spiro[piperidine-4,5′-pyrrolo[1,2-b]pyrazol]-4′-amine] | > 500 nM | ≤ 50 nM |
| N[C@@H]1c2ccnn2CC12CCN(c1cnc(Sc3cccc(F)c3)cn1)CC2 [Example 51, (S)-1-(5-((3-fluorophenyl)thio)pyrazin-2-yl)-4′H,6′H-spiro[piperidine-4,5′-pyrrolo[1,2-b]pyrazol]-4′-amine] | 100 to 500 nM | ≤ 50 nM |

Other lines, results leading:

| IC50 [1] | IC50 [2] | Structure (SMILES) |
| --- | --- | --- |
| < 100 nM | ≤ 50 nM | N[C@@H]1c2c(F)ccn2CC12CCN(c1cnc(Sc3cccc(Cl)c3Cl)cn1)CC2 [Example 29, (S)-1-(5-((2,3-dichlorophenyl)thio)pyrazin-2-yl)-7′-fluoro-1′H,3′H-spiro[piperidine-4,2′-pyrrolizin]-1′-amine] |
| < 100 nM | ≤ 50 nM | N[C@@H]1c2ccnn2CC12CCN(c1cnc(Oc3ccc(F)cc3)cn1)CC2 [Example 7, (S)-1-(5-(4-fluorophenoxy)pyrazin-2-yl)-4′H,6′H-spiro[piperidine-4,5′-pyrrolo[1,2-b]pyrazol]-4′-amine] |
| < 100 nM | ≤ 50 nM | N[C@@H]1c2ccnn2CC12CCN(c1cnc(Sc3ccc(Cl)c4ncccc34)cn1)CC2 [Example 70, (S)-1-(5-((8-chloroquinolin-5-yl)thio)pyrazin-2-yl)-4′H,6′H-spiro[piperidine-4,5′-pyrrolo[1,2-b]pyrazol]-4′-amine] |
| < 100 nM | ≤ 50 nM | N[C@@H]1c2ccnn2CC12CCN(c1cnc(Sc3cccc(Cl)c3)cn1)CC2 [Example 20, (S)-1-(5-((3-chlorophenyl)thio)pyrazin-2-yl)-4′H,6′H-spiro[piperidine-4,5′-pyrrolo[1,2-b]pyrazol]-4′-amine] |
| < 100 nM | ≤ 50 nM | Cc1c(Cl)cccc1Sc1cnc(N2CCC3(CC2)Cn2nccc2[C@H]3N)cn1 [Example 33, (S)-1-(5-((3-chloro-2-methylphenyl)thio)pyrazin-2-yl)-4′H,6′H-spiro[piperidine-4,5′-pyrrolo[1,2-b]pyrazol]-4′-amine] |
| < 100 nM | ≤ 50 nM | N[C@@H]1c2ccnn2CC12CCN(c1cnc(Sc3ccc4c(c3)CCO4)cn1)CC2 [Example 42, (S)-1-(5-((2,3-dihydrobenzofuran-5-yl)thio)pyrazin-2-yl)-4′H,6′H-spiro[piperidine-4,5′-pyrrolo[1,2-b]pyrazol]-4′-amine] |
| < 100 nM | ≤ 50 nM | N[C@@H]1c2ccnn2CC12CCN(c1cnc(Sc3cccc(F)c3C(F)F)cn1)CC2 [Example 71, (S)-1-(5-((2-(difluoromethyl)-3-fluorophenyl)thio)pyrazin-2-yl)-4′H,6′H-spiro[piperidine-4,5′-pyrrolo[1,2-b]pyrazol]-4′-amine] |
| < 100 nM | ≤ 50 nM | COc1cccc(Sc2cnc(N3CCC4(CC3)Cn3nccc3[C@H]4N)cn2)c1F [Example 60, (S)-1-(5-((2-fluoro-3-methoxyphenyl)thio)pyrazin-2-yl)-4′H,6′H-spiro[piperidine-4,5′-pyrrolo[1,2-b]pyrazol]-4′-amine] |
| < 100 nM | ≤ 50 nM | N[C@@H]1c2ccnn2CC12CCN(c1cnc(Sc3ccccc3C(F)(F)F)cn1)CC2 [Example 41, (S)-1-(5-((2-(trifluoromethyl)phenyl)thio)pyrazin-2-yl)-4′H,6′H-spiro[piperidine-4,5′-pyrrolo[1,2-b]pyrazol]-4′-amine] |
| < 100 nM | ≤ 50 nM | N[C@@H]1c2ccnn2CC12CCN(c1cnc(Sc3ccnc(C(F)(F)F)c3Cl)cn1)CC2 [Example 54, (S)-1-(5-((3-chloro-2-(trifluoromethyl)pyridin-4-yl)thio)pyrazin-2-yl)-4′H,6′H-spiro[piperidine-4,5′-pyrrolo[1,2-b]pyrazol]-4′-amine] |
| < 100 nM | ≤ 50 nM | N[C@@H]1c2ccnn2CC12CCN(c1cnc(Sc3c(F)cccc3F)cn1)CC2 [Example 75, (S)-1-(5-((2,6-difluorophenyl)thio)pyrazin-2-yl)-4′H,6′H-spiro[piperidine-4,5′-pyrrolo[1,2-b]pyrazol]-4′-amine] |
